Measured values as given in ChEMBL document CHEMBL3792365, “Dioxol and dihydrodioxin analogs of 2- and 3-phenylacetonitriles as potent anti-cancer agents with nanomolar activity against a variety of human cancer cells” (2016).

Columns and labels:
Type in all cases: functional
[1] = system: U-251; experiment: Growth inhibition of human U251 cells at 10 uM after 48 hrs by sulforhodamine B assay; settings: U-251, 48 h, values are per cent of control
[2] = Growth inhibition of human OVCAR4 cells at 10 uM after 48 hrs by sulforhodamine B assay; settings: OVCAR-4, 48 h, values are per cent of control
[3] = system: SK-MEL-2; experiment: Growth inhibition of human SK-MEL-2 cells at 10 uM after 48 hrs by sulforhodamine B assay; settings: SK-MEL-2, 48 h, values are per cent of control
[4] = system: A498; experiment: Growth inhibition of human A498 cells at 10 uM after 48 hrs by sulforhodamine B assay; settings: A498, 48 h, values are per cent of control
[5] = Growth inhibition of human SF295 cells at 10 uM after 48 hrs by sulforhodamine B assay; settings: SF-295, 48 h, values are per cent of control
[6] = Growth inhibition of human UO31 cells at 10 uM after 48 hrs by sulforhodamine B assay; settings: UO-31, 48 h, values are per cent of control
[7] = system: HT-29; experiment: Growth inhibition of human HT-29 cells at 10 uM after 48 hrs by sulforhodamine B assay; settings: HT-29, 48 h, values are per cent of control
[8] = system: SK-MEL-28; experiment: Growth inhibition of human SK-MEL-28 cells at 10 uM after 48 hrs by sulforhodamine B assay; settings: SK-MEL-28, 48 h, values are per cent of control
[9] = Growth inhibition of human IGROV1 cells at 10 uM after 48 hrs by sulforhodamine B assay; settings: IGROV-1, 48 h, values are per cent of control
[10] = Growth inhibition of human SF539 cells at 10 uM after 48 hrs by sulforhodamine B assay; settings: SF-539, 48 h, values are per cent of control
[11] = Growth inhibition of human COLO205 cells at 10 uM after 48 hrs by sulforhodamine B assay; settings: COLO 205, 48 h, values are per cent of control
[12] = Growth inhibition of human LOXIMVI cells at 10 uM after 48 hrs by sulforhodamine B assay; settings: LOX IMVI, values are per cent of control
[13] = system: A549; experiment: Growth inhibition of human A549/ATCC cells at 10 uM after 48 hrs by sulforhodamine B assay; settings: A549, 48 h, values are per cent of control
[14] = system: SN12C; experiment: Growth inhibition of human SN12C cells at 10 uM after 48 hrs by sulforhodamine B assay; settings: values are per cent of control
[15] = Growth inhibition of human SNB75 cells at 10 uM after 48 hrs by sulforhodamine B assay; settings: SNB-75, 48 h, values are per cent of control
[16] = system: MDA-MB-231; experiment: Growth inhibition of human MDA-MB-231 cells at 10 uM after 48 hrs by sulforhodamine B assay; settings: MDA-MB-231, 48 h, values are per cent of control
[17] = Growth inhibition of human Hs 578T cells at 10 uM after 48 hrs by sulforhodamine B assay; settings: values are per cent of control
[18] = Growth inhibition of human HCC2998 cells at 10 uM after 48 hrs by sulforhodamine B assay; settings: HCC 2998, 48 h, values are per cent of control
[19] = Growth inhibition of human SF268 cells at 10 uM after 48 hrs by sulforhodamine B assay; settings: SF-268, 48 h, values are per cent of control
[20] = Growth inhibition of human UACC62 cells at 10 uM after 48 hrs by sulforhodamine B assay; settings: UACC-62, 48 h, values are per cent of control
[21] = system: M14; experiment: Growth inhibition of human M14 cells at 10 uM after 48 hrs by sulforhodamine B assay; settings: M14, 48 h, values are per cent of control
[22] = Growth inhibition of human TK10 cells at 10 uM after 48 hrs by sulforhodamine B assay; settings: TK-10, 48 h, values are per cent of control
[23] = Growth inhibition of human SNB19 cells at 10 uM after 48 hrs by sulforhodamine B assay; settings: SNB-19, 48 h, values are per cent of control
[24] = system: T47D; experiment: Growth inhibition of human T47D cells at 10 uM after 48 hrs by sulforhodamine B assay; settings: values are per cent of control
[25] = system: NCI-H226; experiment: Growth inhibition of human NCI-H226 cells at 10 uM after 48 hrs by sulforhodamine B assay; settings: NCI-H226, 48 h, values are per cent of control
[26] = system: KM12; experiment: Growth inhibition of human KM12 cells at 10 uM after 48 hrs by sulforhodamine B assay; settings: KM12, 48 h, values are per cent of control
[27] = Growth inhibition of human HCT116 cells at 10 uM after 48 hrs by sulforhodamine B assay; settings: HCT-116, 48 h, values are per cent of control
[28] = system: NCI-H460; experiment: Growth inhibition of human NCI-H460 cells at 10 uM after 48 hrs by sulforhodamine B assay; settings: NCI-H460, 48 h, values are per cent of control
[29] = system: NCI-H23; experiment: Growth inhibition of human NCI-H23 cells at 10 uM after 48 hrs by sulforhodamine B assay; settings: NCI-H23, 48 h, values are per cent of control
[30] = Growth inhibition of human Caki1 cells at 10 uM after 48 hrs by sulforhodamine B assay; settings: CAKI-1, 48 h, values are per cent of control
[31] = Growth inhibition of human BT549 cells at 10 uM after 48 hrs by sulforhodamine B assay; settings: BT-549, 48 h, values are per cent of control
[32] = Growth inhibition of human SW620 cells at 10 uM after 48 hrs by sulforhodamine B assay; settings: SW-620, 48 h, values are per cent of control
[33] = Growth inhibition of human DU145 cells at 10 uM after 48 hrs by sulforhodamine B assay; settings: DU-145, 48 h, values are per cent of control
[34] = system: MDA-MB-468; experiment: Growth inhibition of human MDA-MB-468 cells at 10 uM after 48 hrs by sulforhodamine B assay; settings: MDA-MB-468, 48 h, values are per cent of control
[35] = system: MDA-MB-435; experiment: Growth inhibition of human MDA-MB-435 cells at 10 uM after 48 hrs by sulforhodamine B assay; settings: MDA-MB-435, 48 h, values are per cent of control
[36] = system: NCI-H322M; experiment: Growth inhibition of human NCI-H322M cells at 10 uM after 48 hrs by sulforhodamine B assay; settings: values are per cent of control
[37] = Growth inhibition of human OVCAR5 cells at 10 uM after 48 hrs by sulforhodamine B assay; settings: OVCAR-5, 48 h, values are per cent of control
[38] = Growth inhibition of human HOP62 cells at 10 uM after 48 hrs by sulforhodamine B assay; settings: HOP-62, 48 h, values are per cent of control
[39] = system: K562; experiment: Growth inhibition of human K562 cells at 10 uM after 48 hrs by sulforhodamine B assay; settings: K562, 48 h, values are per cent of control
[40] = system: NCI-H522; experiment: Growth inhibition of human NCI-H522 cells at 10 uM after 48 hrs by sulforhodamine B assay; settings: NCI-H522, 48 h, values are per cent of control

COc1cc(/C=C(\C#N)c2ccc3c(c2)OCO3)cc(OC)c1
growth, % of control at 10 µM [1]: 93.7% | growth, % of control at 10 µM [2]: 82.9% | growth, % of control at 10 µM [3]: 94.4% | growth, % of control at 10 µM [4]: 88.9% | growth, % of control at 10 µM [5]: 99.2% | growth, % of control at 10 µM [6]: 78.6% | growth, % of control at 10 µM [7]: 92.4% | growth, % of control at 10 µM [8]: 106% | growth, % of control at 10 µM [9]: 87.1% | growth, % of control at 10 µM [10]: 104% | growth, % of control at 10 µM [11]: 97.7% | growth, % of control at 10 µM [12]: 103% | growth, % of control at 10 µM [13]: 84.6% | growth, % of control at 10 µM [14]: 95.3% | growth, % of control at 10 µM [15]: 68.9% | growth, % of control at 10 µM [16]: 92.5% | growth, % of control at 10 µM [17]: 115% | growth, % of control at 10 µM [18]: 102% | growth, % of control at 10 µM [19]: 95.5% | growth, % of control at 10 µM [20]: 86.4% | growth, % of control at 10 µM [21]: 99.5% | growth, % of control at 10 µM [22]: 95.6% | growth, % of control at 10 µM [23]: 101% | growth, % of control at 10 µM [24]: 75.6% | growth, % of control at 10 µM [25]: 99.8% | growth, % of control at 10 µM [26]: 94.6% | growth, % of control at 10 µM [27]: 96.3% | growth, % of control at 10 µM [28]: 102% | growth, % of control at 10 µM [29]: 96.6% | growth, % of control at 10 µM [30]: 96.5% | growth, % of control at 10 µM [31]: 86.4% | growth, % of control at 10 µM [32]: 102% | growth, % of control at 10 µM [33]: 94.4% | growth, % of control at 10 µM [34]: 98.7% | growth, % of control at 10 µM [35]: 100% | growth, % of control at 10 µM [36]: 89.5% | growth, % of control at 10 µM [37]: 111% | growth, % of control at 10 µM [38]: 92.3% | growth, % of control at 10 µM [39]: 98.7% | growth, % of control at 10 µM [40]: 87.9%

N#C/C(=C\c1ccc(Cl)cc1Cl)c1ccc2c(c1)OCO2
growth, % of control at 10 µM [1]: 91.1% | growth, % of control at 10 µM [2]: 88.7% | growth, % of control at 10 µM [3]: 98.9% | growth, % of control at 10 µM [4]: 101% | growth, % of control at 10 µM [5]: 97.5% | growth, % of control at 10 µM [6]: 75.1% | growth, % of control at 10 µM [7]: 89.7% | growth, % of control at 10 µM [8]: 98.3% | growth, % of control at 10 µM [9]: 97.9% | growth, % of control at 10 µM [10]: 93.8% | growth, % of control at 10 µM [11]: 99% | growth, % of control at 10 µM [12]: 103% | growth, % of control at 10 µM [13]: 92.3% | growth, % of control at 10 µM [14]: 102% | growth, % of control at 10 µM [15]: 76.2% | growth, % of control at 10 µM [16]: 119% | growth, % of control at 10 µM [17]: 135% | growth, % of control at 10 µM [18]: 94.8% | growth, % of control at 10 µM [19]: 94.4% | growth, % of control at 10 µM [20]: 81.9% | growth, % of control at 10 µM [21]: 88.7% | growth, % of control at 10 µM [22]: 90.7% | growth, % of control at 10 µM [23]: 99.8% | growth, % of control at 10 µM [24]: 76.3% | growth, % of control at 10 µM [25]: 113% | growth, % of control at 10 µM [26]: 76% | growth, % of control at 10 µM [27]: 99.5% | growth, % of control at 10 µM [28]: 103% | growth, % of control at 10 µM [29]: 96.3% | growth, % of control at 10 µM [30]: 86.9% | growth, % of control at 10 µM [31]: 86.4% | growth, % of control at 10 µM [32]: 106% | growth, % of control at 10 µM [33]: 99.3% | growth, % of control at 10 µM [34]: 82.1% | growth, % of control at 10 µM [35]: 50.7% | growth, % of control at 10 µM [36]: 86.4% | growth, % of control at 10 µM [37]: 106% | growth, % of control at 10 µM [38]: 88% | growth, % of control at 10 µM [39]: 76.2% | growth, % of control at 10 µM [40]: 75.8%
